According to ChEMBL document CHEMBL1201862, “PubChem BioAssay data set” (2004):
Calls of active or inactive are those of the source. Rule as the data show it, for most assays here: actives have a measured EC50 and inactives only a lower limit.

Assays:
[1] = cytotoxicity in HEK-293T cells, dose response, cytotoxicity control for BCR NF-kB inhibitor project, luminescence, B-cell screen hits (AID 489021); format: functional, cell-based;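 also: HEK-293T cells carrying an NF-kB luciferase reporter; cells exposed to compound for about 14 hours before viability readout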
H4 = test: Luminescence Cell-Based Dose Response HTS to Identify Activators of 5'UTR Stem-Loop Driven Prion Protein mRNA Translation in H4 Neuroglioblastoma Cells. [Related pubchem assays: 1829 (Project Summary), 1814 (Primary HTS)]; format: functional; conditions: Homo sapiens
[2] = Luminescence Cell-Based Dose Confirmation HTS to Identify Activators of 5'UTR Stem-Loop Driven Alpha-Synuclein mRNA Translation in H4 Neuroglioblastoma Cells. [Related pubchem assays: 1829 (Project Summary), 1814 (Primary HTS)]; format: functional
[3] = Luminescence Cell-Based Dose Response HTS to Identify Activators of Luciferase Translation or Activity in H4 […] Cells. [Related pubchem assays: 1829 (Project Summary), 1814 (Primary HTS)]; format: functional
HeLa = test: HeLa cell cytotoxicity, dose response, cytotoxicity control for MITF activator project, CellTiter-Glo luminescence, cherry-pick samples (AID 540259); format: functional, cell-based; conditions: Homo sapiens
[4] = Luminescence Cell-Based Dose Retest to Confirm Inhibitors of Cancer Stem Cells. [Related pubchem assays (depositor defined):AID2717, AID2721]; format: functional; conditions: Homo sapiens
[5] = C. albicans growth with fluconazole, confirmation, fluorescence, retest (AID 2467); format: functional, cell-based
[6] = NIH-3T3 fibroblast cytotoxicity, dose response, cytotoxicity control, cell-based, fluorescence, Alamar Blue, secondary assay (AID 2327); format: functional;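 also: NIH-3T3 mouse fibroblasts cultured with fluconazole at 8 µg/mL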
[7] = target: T1, Serine/threonine-protein phosphatase (Candida dubliniensis (strain CD36 / CBS 7987 / NCPF 3949 / NRRLY-17841) (Yeast), UniProt B9W6M3); test: calcineurin pathway inhibitors in yeast reporter, dose response, S. cerevisiae, CDRE-lacZ, luminescence, secondary (AID 2388); format: functional, cell-based;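 also: yeast reporter cells carrying a calcineurin-responsive lacZ construct stimulated with calcium chloride; luminescent beta-galactosidase reporter signal in whole cells rather than isolated phosphatase activity; potency for inhibition where a drop in reporter signal means calcineurin blockade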
T1 sequence (B9W6M3 whole entry): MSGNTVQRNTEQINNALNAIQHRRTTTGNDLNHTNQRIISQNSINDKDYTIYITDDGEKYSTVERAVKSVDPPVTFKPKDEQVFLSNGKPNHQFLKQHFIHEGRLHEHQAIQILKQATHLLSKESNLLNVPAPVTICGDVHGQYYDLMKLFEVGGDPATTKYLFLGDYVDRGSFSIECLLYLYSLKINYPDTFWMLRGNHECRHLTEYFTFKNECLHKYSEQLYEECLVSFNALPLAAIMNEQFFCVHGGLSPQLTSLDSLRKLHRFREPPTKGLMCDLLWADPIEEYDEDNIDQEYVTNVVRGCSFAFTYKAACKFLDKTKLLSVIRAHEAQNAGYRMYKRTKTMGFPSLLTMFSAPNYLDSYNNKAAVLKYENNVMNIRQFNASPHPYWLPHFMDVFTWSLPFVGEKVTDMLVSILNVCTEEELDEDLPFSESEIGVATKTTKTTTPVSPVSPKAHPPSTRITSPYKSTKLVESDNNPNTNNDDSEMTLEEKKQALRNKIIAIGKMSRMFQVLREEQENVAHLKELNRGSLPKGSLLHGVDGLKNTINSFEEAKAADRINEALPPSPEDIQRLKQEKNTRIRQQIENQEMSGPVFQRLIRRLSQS

[8] = target: ATP-dependent molecular chaperone HSP82 (Candida albicans (strain WO-1) (Yeast), UniProt C4YTQ8); test: loss of DOC-induced GRE-beta-galactosidase reporter signal, dose response, Hsp90 inhibitor project, S. cerevisiae, luminescence (AID 2400); format: functional, cell-based;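 also: beta-galactosidase luminescence from glucocorticoid response element reporter as proxy for Hsp90 function; inhibitor potency where signal loss means Hsp90 inhibition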
[9] = target: T2, Corticotropin-releasing factor receptor 2/Corticotropin-releasing factor-binding protein (Homo sapiens, UniProt P24387+Q13324); test: activators of CRF receptor 2 with binding protein – uHTS hits, confirmation (AID 602473); format: functional; conditions: read-out: EC50_Mean
T2 sequence (Q13324 whole entry): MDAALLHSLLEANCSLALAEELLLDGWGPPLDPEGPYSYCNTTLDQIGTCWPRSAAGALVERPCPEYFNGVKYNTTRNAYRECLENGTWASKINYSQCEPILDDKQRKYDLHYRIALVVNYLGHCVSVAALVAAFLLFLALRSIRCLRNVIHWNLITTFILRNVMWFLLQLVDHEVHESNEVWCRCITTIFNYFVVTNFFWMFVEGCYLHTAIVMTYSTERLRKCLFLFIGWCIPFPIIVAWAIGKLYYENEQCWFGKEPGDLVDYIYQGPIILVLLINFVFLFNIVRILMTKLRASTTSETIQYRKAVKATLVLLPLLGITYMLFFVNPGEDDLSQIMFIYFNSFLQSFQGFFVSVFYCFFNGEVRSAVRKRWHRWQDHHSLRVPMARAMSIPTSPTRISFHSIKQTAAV
T2 sequence (P24387 whole entry): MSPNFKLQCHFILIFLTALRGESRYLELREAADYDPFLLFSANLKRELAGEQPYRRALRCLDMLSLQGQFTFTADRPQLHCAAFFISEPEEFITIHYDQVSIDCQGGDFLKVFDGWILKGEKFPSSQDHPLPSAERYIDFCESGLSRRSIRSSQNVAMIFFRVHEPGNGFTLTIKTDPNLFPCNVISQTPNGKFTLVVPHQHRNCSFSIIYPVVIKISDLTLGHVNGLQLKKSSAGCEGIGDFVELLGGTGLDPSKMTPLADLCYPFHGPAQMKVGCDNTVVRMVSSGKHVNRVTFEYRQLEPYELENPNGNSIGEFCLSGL

[10] = inhibitors of firefly luciferase expression or activity, dose response, H4 neuroglioma cells, luminescence (AID 1990); format: functional, cell-based
[11] = growth suppression of beta-catenin-knockout colon cells, dose response, cell-based, HCT116, human colon tumor (AID 1045); format: functional;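 also: HCT116 colon tumor cells with beta catenin knocked out; cells exposed to compound for 60 hours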
[12] = Luminescence Cell-Based Dose Response HTS to Identify Inhibitors of 5'UTR Stem-Loop Driven Prion Protein mRNA Translation in H4 Neuroglioblastoma Cells. [Related pubchem assays: 1827 (Project Summary), 1813 (Primary HTS)]; format: functional
[13] = inhibitors of SNCA 5'UTR-driven reporter translation, confirmation, H4 neuroglioma cells, luminescence (AID 1988); format: functional, cell-based
[14] = growth suppression of PTEN-null colon cells, dose response, cell-based, HCT116 PTEN knockout (AID 1047); format: functional;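 also: HCT116 colon tumor cells with PTEN knocked out; cells exposed to compound for 60 hours before readout; potency for loss of cell viability measured by luminescence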
[15] = HEp-2 cell cytotoxicity, dose response, cytotoxicity control for RSV inhibitor project, HTS (AID 2410); format: functional; conditions: human respiratory syncytial virus
H9c2 = test: cells; format: functional, cell-based; conditions: Rattus norvegicus, H9c2, Myocardium;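 also: confirmatory concentration-response retest of ultra-high-throughput screening hits for modulation of myocardial damage; cell death induced by hydrogen peroxide oxidative stress; compound pretreatment for 60 min then peroxide exposure for 2 h; potency is for protecting the cells against peroxide damage rather than for killing them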
BJ [16] = test: cytotoxicity toward BJ-TERT-LT-ST fibroblasts, dose response, cell-based, RAS-independent, luminescence (AID 1935); format: functional; conditions: Homo sapiens;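 also: BJ fibroblasts immortalized with TERT plus LT and ST oncogenes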
BJ [17] = test: cells; format: functional, cell-based; conditions: Homo sapiens
BJ [18] = test: cytotoxicity toward BJ-TERT fibroblasts, dose response, cell-based, RAS-independent, luminescence (AID 1933); format: functional; conditions: Homo sapiens
[19] = cytotoxicity toward DRD oncogenic fibroblasts, dose response, cell-based, non-viral oncogenic, luminescence (AID 1934); format: functional; conditions: Homo sapiens
[20] = target: Heat shock protein HSP 90-alpha (Homo sapiens, UniProt P07900); format: functional, organism-based
[21] = microbe, parasite or virus in culture; format: functional; conditions: Mycobacterium tuberculosis
INS1 = test: beta cell apoptosis inhibitors, cytokine rescue, dose response, luminescence, retest (AID 449756); format: functional, cell-based; conditions: Rattus norvegicus;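 also: cell death triggered by IL-1 beta plus TNF-alpha plus IFN-gamma mixture; protective hits raise ATP signal compared with cytokine alone wells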
cells [22] = format: functional, cell-based
cells [23] = format: functional, cell-based; remark: listed apart in the source
[24] = inhibitors of intracellular T. cruzi replication, confirmation, NIH3T3 host cells, beta-gal luminescence (AID 2044); format: functional, cell-based;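 also: intracellular parasites grown in NIH/3T3 mouse fibroblasts as host cells; luminescent beta-galactosidase reporter signal from transgenic T. cruzi replicating inside host cells; inhibitors lower the luminescence signal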
[25] = cytotoxicity toward NIH3T3 fibroblasts, dose response, counter-screen, cell-based, ATP luminescence, mouse fibroblasts (AID 2010); format: functional;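 also: cells exposed to compound for about 90 hours before reading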

Chain of ATP-dependent molecular chaperone HSP82 (C4YTQ8 whole entry): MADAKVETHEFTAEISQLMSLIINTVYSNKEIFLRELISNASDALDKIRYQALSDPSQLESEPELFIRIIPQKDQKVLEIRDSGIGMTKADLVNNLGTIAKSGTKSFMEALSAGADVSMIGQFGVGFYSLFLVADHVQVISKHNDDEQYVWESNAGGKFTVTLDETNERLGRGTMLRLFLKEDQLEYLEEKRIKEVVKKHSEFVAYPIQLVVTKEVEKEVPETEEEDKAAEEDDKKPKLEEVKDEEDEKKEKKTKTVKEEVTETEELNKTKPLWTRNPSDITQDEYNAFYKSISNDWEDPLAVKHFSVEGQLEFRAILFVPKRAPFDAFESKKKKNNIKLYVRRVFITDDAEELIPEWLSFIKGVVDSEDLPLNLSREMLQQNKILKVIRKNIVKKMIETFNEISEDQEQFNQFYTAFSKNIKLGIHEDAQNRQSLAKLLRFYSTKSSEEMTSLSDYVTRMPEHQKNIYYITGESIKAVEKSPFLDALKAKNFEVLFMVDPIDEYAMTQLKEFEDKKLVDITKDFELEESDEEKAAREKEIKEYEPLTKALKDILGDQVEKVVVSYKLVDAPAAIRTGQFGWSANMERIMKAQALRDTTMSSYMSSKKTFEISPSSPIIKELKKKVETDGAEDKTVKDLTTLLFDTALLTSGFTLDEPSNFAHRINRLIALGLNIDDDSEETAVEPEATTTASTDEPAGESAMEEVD

CCCS(=O)(=O)Nc1cccc(-c2ccc3nnc(C)n3n2)c1
IC50 [1]: > 80 µM (inactive)

Cc1ccccc1C(=O)O/N=C(\N)Cc1cccs1
EC50 (H4): 6.9 µM (active)
EC50 [2]: > 120 µM (not active)
EC50 [3]: 67.6 µM (active)
AC50 (HeLa): 32 µM (active)

COc1ccc(C2=NN(c3nc4ccccc4s3)C(=O)C2)cc1
AC50 [4]: 2.21 µM (active)
EC50 [5]: > 38 µM (not active)
EC50 [6]: > 160 µM (inconclusive)
EC50 [7]: 3.92 µM (active)
EC50 [8]: 1.4 µM (active)

C=CCNC(S)=Nc1sc2c(c1C(=O)OCC)CC(C)(CC)OC2 (configuration not stated)
EC50 [5]: 0.889 µM (active)
EC50 [6]: > 150 µM (inconclusive)
EC50 [7]: > 180 µM (inactive)
EC50 [8]: 19.2 µM (active)

C[C@H]1CC[C@@H]2[C@@H](C)[C@H]3[C@H](C[C@H]4[C@@H]5CC=C6C[C@@H](O[C@@H]7O[C@H](CO)[C@H](O)[C@H](O[C@@H]8O[C@H](CO)[C@@H](O)[C@H](O)[C@H]8O)[C@H]7O[C@@H]7O[C@@H](C)[C@H](O)[C@@H](O)[C@H]7O)CC[C@]6(C)[C@H]5CC[C@]34C)N2C1
EC50 [9]: 9.48 µM (active)
EC50 [10]: 13.5 µM (active)
EC50 [11]: 22.1 µM (active)
EC50 [12]: > 120 µM (not active)
EC50 [13]: > 120 µM (not active)
EC50 [14]: 25.2 µM (active)

Cc1csc(NC(=O)CCc2c(C)nc3cc(-c4ccc(Cl)cc4)nn3c2C)n1
IC50 [1]: > 80 µM (inactive)

CCCn1nnc2sc3c(c2c1=O)CCC(C)C3 (configuration not stated)
EC50 (H4): 16.2 µM (active)
EC50 [2]: 41.1 µM (active)
EC50 [3]: 0.528 µM (active)
AC50 (HeLa): 55.9 µM (active)
CC50 [15]: > 50 µM (active)

c1ccc(-c2cnnc(N3CCCCC3)n2)cc1
AC50 (HeLa): 191 µM (active)

CCCCC(=O)NC(=S)Nc1cccc(NC(=O)c2ccco2)c1
EC50 [5]: 4.79 µM (active)
EC50 [6]: > 150 µM (inconclusive)
EC50 [7]: > 180 µM (inactive)
EC50 [8]: > 160 µM (inactive)

Cc1cccc2c1-c1sc(C(=O)N3CCCCC3)cc1CO2
AC50 (HeLa): > 350 µM (inactive)

Cc1c(CCC(=O)NCCCn2ccnc2)c(=O)oc2c(C)c3oc4c(c3cc12)CCCC4
EC50 [10]: 13.7 µM (active)
IC50 [1]: 63.6 µM (inactive)
EC50 [12]: 17.8 µM (active)
EC50 [13]: 14.6 µM (active)

CC(=O)Nc1ccc(Nc2nc(-c3sc(NC(C)=O)nc3C)cs2)cc1
IC50 [1]: 20.6 µM (inactive)
IC50 (H9c2): > 79 µM (inactive)

Cc1cc2c(C)cc(O)nc2cc1NC(=O)CCl
EC50 (BJ [16]): > 150 µM (not active)
EC50 (BJ [17]): > 150 µM (not active)
EC50 (BJ [18]): 17.7 µM (active)
EC50 [19]: 42.2 µM (active)

C(C#CCCCCCCCCC[n+]1ccccc1)#CCCCCCCCCC[n+]1ccccc1
EC50 [5]: 0.05 µM (active)
EC50 [6]: > 150 µM (inactive)
EC50 (BJ [16]): 6.02 µM (active)
EC50 [7]: > 180 µM (inactive)
EC50 (BJ [17]): > 150 µM (inconclusive)
EC50 [8]: > 150 µM (inactive)
AC50 [20]: 3.58 µM (active)
EC50 (BJ [18]): 2.28 µM (inconclusive)
CC50 [21]: > 40 µM (active)
EC50 [19]: 5.68 µM (active)
AC50 (INS1): 1.67 µM (active)

COc1cccc(/C=N/NC(=O)c2c(C)nc3ccc(Br)cn23)c1O
EC50 (cells [22]): 7.35 µM (active)
EC50 [5]: 0.483 µM (active)
EC50 [6]: > 160 µM (inactive)
EC50 [7]: > 180 µM (inactive)
EC50 (cells [23]): 126 µM (active)
EC50 [8]: 23.8 µM (active)
EC50 [24]: 3.06 µM (active)
EC50 [25]: > 60 µM (inconclusive)
AC50 (INS1): 0.842 µM (active)
